Assay results published in patent US20120010229A1, “THERAPEUTIC REGIMENS FOR HEDGEHOG-ASSOCIATED CANCERS” (priority 2010, published 2012).

How the values were obtained:
[1] = system: Ptc^C/C medulloblastoma flank allografts; assay: Ptc^C/C medulloblastoma flank allografts (tumor take and response); assay type: in vivo, mouse
Description: Animal experiments were performed in accordance with the NIH Guide for the Care and Use of Experimental Animals with approval from the Institutional Animal Care and Use Committee. Freshly excised medulloblastoma tumors from symptomatic Ptc^C/C mice were placed in cooled phosphate buffered saline (PBS), minced with a scalpel, and filtered through a 100 μm cell strainer (BD Bioscience, San Jose, Calif.). The cells were pelleted at 1000 rpm for 5 minutes at 4° C., and resuspended in equal parts DMEM and Matrigel (BD Biosciences, San Diego, Calif.). Recipient mice (wild type littermates) were anesthetized with isoflurane and a suspension of 1×10^6 cells in total volume of 200 μL was injected subcutaneously into the flank using a 30G needle. Tumor growth was measured in two dimensions using digital calipers every 24-48 hours, and the tumor volumes were calculated according to the following formula: 0.5×length×width^2, with width being the smaller of the two dimensions measured. Tumors greater than 2.5 cm in length were harvested and either snap-frozen or fixed in 10% formalin.
To confirm this, aliquots of 1 million cells from the cerebellar tumors of 9 donor Ptc^C/C mice were transplanted to the flanks of 110 recipients.
Recipient mice bearing drug-naïve and IPI-926 treated allograft tumors were then treated with daily IPI-926 (20 mg/kg) and tumor growth was monitored via caliper measurements. […] When tumor volumes reached […], recipient mice then received either daily IPI-926 (20 mg/kg) or vehicle treatment, and the growth of flank allografts was monitored over a nine-week period. […] Half of the allograft mice from drug-treated donors were taken off drug after five weeks of IPI-926 treatment, and the other half received continuous IPI-926 for the nine-week study period. Mice from both groups were monitored for the entire 9-week period.

[2] = system: L3.6pl P-lucky liver metastasis; assay: L3.6pl liver metastasis model, Study #1; assay type: in vivo; settings: for H&E staining of liver, tumor cells or metastasis: day 21
Description: Cells: L3.6pl is a pancreatic cancer cell line that has been tagged with the bioluminescence marker, luciferase, and is known to form metastasis in the liver (pl—pancreas to liver). Cells were cultured in RPMI+10% FBS and harvested on the day of implant. A single cell suspension was prepared in PBS at a concentration of 10 million cells per 1 ml of PBS. These cells were kept at 4° C. until implantation.
Model Procedure: Animals were anesthetized and prepared for surgery. The animal's spleen was exposed and 100 μl (1 million cells) of the L3.6pl single cell suspension was injected directly in the spleen towards the splenic vein (intra splenic injection). Once the injection was complete, the splenic artery and splenic vein were ligated, the spleen was excised, and the animals' wounds were closed. Post-op care and analgesia was given for 4 consecutive days and animals were monitored for recovery.
Prior to the procedure listed above 40 animals were separated into 4 groups consisting of 10 animals each.
Animals in group 2 (Pre-Treatment), received IPI-926 every-other-day for 14 days, prior to the intra splenic injection procedure, continuing until the study end.
Animals in group 3 (Day-of-Treatment), received IPI-926 every-other-day beginning on the day of the intra splenic injection procedure, continuing until the study end.
Animals in group 4 (Post-Treatment), received IPI-926 every-other-day beginning 7 days after the intra splenic injection procedure, continuing until the study end.
Results Procedure: Animals were injected with 10 ml/kg of luciferin concentrated at […] via I.P. injection. This luciferin binds to the L3.6pl P-Lucky cells injected on day 0. Utilizing Calipers Xenogen© machine, this cell-luciferin association emits bioluminescence that can be read and quantified (total flux).
Results: The graphs in FIGS. 10A-10B represent the quantification, normalized on each day to the average of vehicle treated animals. This normalization was done using the formula: (1/(average flux of vehicle animals/average flux of group X (group being compared))).

## CC1=C2C[C@H]3[C@@H](CC[C@@H]4C[C@H](NS(C)(=O)=O)CC[C@@]43C)[C@@H]2CC[C@@]2(C1)O[C@@H]1C[C@H](C)CN[C@H]1[C@H]2C [IPI-926]
[1]; allografts from drug-treated donors, continuous IPI-926 for nine weeks
  tumor re-growth on continuous IPI-926: no tumors re-grew
[1]; allografts from drug-treated donors, off drug after five weeks, monitored 9 weeks
  tumors that re-grew after going off drug: 1 of 6
[1]; daily IP 20 mg/kg, both allograft groups (drug-naive and IPI-926 treated donors)
  allograft tumors undetectable by caliper measurements: 100%
[1]; donors treated daily 20 mg/kg for 6 weeks before transplantation, drug-naive donors 40 of the 110, P=0.017
  flank tumor take in recipients (tumor initiating capacity): 9 of 51
[1]; flank allografts from drug-naive donors, 9-week trial
  tumors that progressed while on therapy: Forty percent
[2]; IPI-926 every-other-day from 14 days prior to implant
  reduction in flux (bioluminescence) below vehicle: 20-25 fold
[2]; day of implant treatment (Day 0)
  take or growth of metastasis within the liver: no detectable effect
[2]; day of treated group
  H&E staining of liver, tumor cells or metastasis: visible metastasis and tumors cells present
[2]; day of treatment group
  survival rate vs vehicle: survival rates similar to vehicle treated animals
[2]; post implant treatment (Day 7)
  take or growth of metastasis within the liver: no detectable effect
[2]; post treated group
  H&E staining of liver, tumor cells or metastasis: visible metastasis and tumors cells present
[2]; post treatment group
  survival rate vs vehicle: survival rates similar to vehicle treated animals
[2]; pre-treatment animal
  H&E staining of liver, tumor cells or metastasis: no detectable tumor cells or metastasis
[2]; treatment from 14 days prior to implant
  overall survival rate vs vehicle: doubles the overall survival rate
